US20240099344A1, “HYDROXY- AND METHOXY-SUBSTITUTED FLAVONOIDS AND THEIR USE” (Firmenich SA, priority 2021, published 2024)

Experiments:
[1] = test system: human sensory panel (sweet, bitter or astringent taste); experiment: Sensory testing in model bases (human sensory panel, 20 trained panelists); type: in vivo; details: 10 ppm; scale of −5 (strong masking effect) to 5 (strong enhancing effect); 0 = reference water solution containing 4% sucrose or 10 ppm mixture of Limonin, Naringin and Nomilin
Description: Certain HMF compounds were tasted by a human sensory panel to assess their ability to reduce bitterness, reduce astringency, and enhance sweetness. The panel consisted of 20 trained panelists evaluating the samples at 10 ppm for taste properties (sweet, bitter or astringent) on a scale of −5 to 5 (−5 denoted strong masking effect and 5 denoted strong enhancing effect, 0 being the intensity of a reference water solution containing 4% sucrose or 10 ppm mixture of Limonin, Naringin and Nomilin).

[2] = test system: human sensory panel (bitter and astringent taste); experiment: Sensory testing in applications (human sensory panel, 8 experts); type: in vivo; details: scale of −5 (strong masking) to 5 (strong enhancing), 0 = reference application; for Smart Protein Beverage Astringent / Smart Protein Beverage Bitter / Smart Protein Beverage Off-flavor: 10 ppm in smart protein beverage
Description: Certain HMF compounds were tasted by a human sensory panel to assess their ability to reduce bitterness and astringency. The panel consisted of 8 experts evaluating the samples at 10 ppm for taste properties (bitter and astringent) on a scale of −5 to 5 (−5 denoted strong masking effect and 5 denoted strong enhancing effect, 0 being the intensity of a reference application in coffee, tea or pomegranate juice, smart protein beverage).

COc1ccc(-c2cc(=O)c3c(O)c(OC)c(O)c(OC)c3o2)cc1 [Compound 101, 5,7-dihydroxy-6,8,4′-trimethoxyflavone]
Astringency [1]: −1.21 | Bitterness [1]: −1.59 | Sweetness [1]: −0.23 | Coffee Astringency ([2]; 10 ppm in coffee): 0.17 | Coffee Bitterness ([2]; 10 ppm in coffee): −0.58 | Pomegranate Juice Astringency ([2]; 10 ppm in pomegranate juice): 0.67 | Pomegranate Juice Bitterness ([2]; 10 ppm in pomegranate juice): 0.31 | Smart Protein Beverage Astringent [2]: 0.4 | Smart Protein Beverage Bitter [2]: −0.6 | Smart Protein Beverage Off-flavor [2]: −0.1 | Tea Astringency ([2]; 10 ppm in tea): 1.00 | Tea Bitterness ([2]; 10 ppm in tea): 0.83

O=c1cc(-c2ccc(O)cc2)oc2cc(O)c(O)c(O)c12 [Compound 103, 5,6,7,4′-tetrahydroxyflavone]
Astringency [1]: −0.35 | Bitterness [1]: −1.28 | Sweetness [1]: 0.50 | Smart Protein Beverage Astringent [2]: 0.25 | Smart Protein Beverage Bitter [2]: 0.00 | Smart Protein Beverage Off-flavor [2]: −0.50

COc1c(O)cc2oc(-c3ccccc3)cc(=O)c2c1O [Compound 104, 5,7-dihydroxy-6-methoxyflavone]
Astringency [1]: −0.48 | Bitterness [1]: −1.08 | Sweetness [1]: 0.17

COc1ccc(-c2cc(=O)c3c(O)c(OC)c(O)cc3o2)cc1OC [Compound 105, 5,7-dihydroxy-6,3′,4′-trimethoxyflavone]
Astringency [1]: −0.53 | Bitterness [1]: −2.02 | Sweetness [1]: 0.58 | Smart Protein Beverage Astringent [2]: −1.0 | Smart Protein Beverage Bitter [2]: −0.80 | Smart Protein Beverage Off-flavor [2]: −0.80

COc1cc(-c2oc3cc(O)cc(O)c3c(=O)c2O)ccc1O [Compound 106, 3,4′,5,7-tetrahydroxy-3′-methoxyflavone]
Astringency [1]: −0.34 | Bitterness [1]: −1.47 | Sweetness [1]: 0.58

COc1cc(O)cc2c1C(=O)CC(c1ccccc1)O2 (stereo not drawn) [Compound 107, 5-methoxy-7-hydroxyflavanone]
Astringency [1]: −1.56 | Bitterness [1]: −2.56 | Sweetness [1]: 0.08

COc1ccc(-c2oc3cc(OC)c(OC)c(O)c3c(=O)c2OC)cc1O [Compound 108, 3,6,7,4′-tetramethoxy-5,3′-dihydroxyflavone]
Astringency [1]: −1.01 | Bitterness [1]: −1.94 | Sweetness [1]: −0.08 | Smart Protein Beverage Astringent [2]: −0.33 | Smart Protein Beverage Bitter [2]: −0.42 | Smart Protein Beverage Off-flavor [2]: −0.33

COc1c(O)cc(O)c2c(=O)cc(-c3ccccc3)oc12 [Compound 109, 5,7-dihydroxy-8-methoxyflavone]
Astringency [1]: −0.64 | Bitterness [1]: −1.54 | Sweetness [1]: −0.58
